Measurements published in ChEMBL document CHEMBL3779783, “Short cationic lipopeptides as effective antibacterial agents: Design, physicochemical properties and biological evaluation” (Bioorg Med Chem, 2016).
Converted amounts (≈) assume the structure as drawn. The source made the active and inactive calls. The rule behind the calls is not given here. Non-standard residues stand in square brackets, D forms with d. Residues, ends and D or L forms follow the SMILES beside them. Groups on a side chain read outwards from the residue. ξ: configuration not given here. ξGly(decyl) = CCCCCCCCCCC(N)C(=O)O

How the values were obtained:
[1] = tested on: Escherichia coli; assay: Antimicrobial activity against Escherichia coli ATCC 25922 after 20 hrs by microdilution assay; format: functional; details: ATCC 25922, 20 h
[2] = tested on: Klebsiella pneumoniae; assay: Antimicrobial activity against NDM-1 positive Klebsiella pneumoniae BAA-2146 after 20 hrs by microdilution assay; format: functional; details: ATCC BAA-2146, 20 h
[3] = tested on: Staphylococcus aureus; assay: Antimicrobial activity against methicillin-susceptible Staphylococcus aureus ATCC 25923 after 20 hrs by microdilution assay; format: functional; details: ATCC 25923, 20 h
[4] = tested on: Acinetobacter baumannii; assay: Antimicrobial activity against Acinetobacter baumannii […] after 20 hrs by microdilution assay; format: functional
[5] = tested on: Staphylococcus aureus; assay: Antimicrobial activity against glycopeptide-intermediate Staphylococcus aureus NRS1 after 20 hrs by microdilution assay; format: functional; details: NRS1, 20 h
[6] = tested on: Pseudomonas aeruginosa; assay: Antimicrobial activity against Pseudomonas aeruginosa ATCC 27853 after 20 hrs by microdilution assay; format: functional; details: ATCC 27853, 20 h
[7] = tested on: Staphylococcus aureus; assay: Antimicrobial activity against methicillin-resistant Staphylococcus aureus ATCC 43300 after 20 hrs by microdilution assay; format: functional; details: ATCC 43300, 20 h
[8] = Cytotoxicity against human HepG2 cells after 24 hrs by MTT assay; format: cell-based
[9] = tested on: Staphylococcus aureus; assay: Antimicrobial activity against vancomycin-resistant Staphylococcus aureus NARSA VRS4 after 20 hrs by microdilution assay; format: functional; details: NARSA VRS4, 20 h
[10] = tested on: Staphylococcus aureus; assay: Antimicrobial activity against glycopeptide-intermediate Staphylococcus aureus NRS17 after 20 hrs by microdilution assay; format: functional; details: NRS17, 20 h
[11] = tested on: Staphylococcus aureus; assay: Antimicrobial activity against vancomycin-resistant Staphylococcus aureus NARSA VRS10 after 20 hrs by microdilution assay; format: functional; details: NARSA VRS10, 20 h
[12] = tested on: Streptococcus pneumoniae; assay: Antimicrobial activity against multidrug resistant Streptococcus pneumoniae ATCC 700677 after 20 hrs by microdilution assay; format: functional; details: ATCC 700677, 20 h
[13] = tested on: Staphylococcus aureus; assay: Antimicrobial activity against clinical isolates of multi-resistant/methicillin-resistant Staphylococcus aureus after 20 hrs by microdilution assay; format: functional
[14] = tested on: Enterococcus faecium; assay: Antimicrobial activity against multidrug resistant and high level vancomycin resistant Enterococcus faecium ATCC 51559 after 20 hrs by microdilution assay; format: functional; details: ATCC 51559, 20 h
[15] = tested on: Klebsiella pneumoniae; assay: Antimicrobial activity against multidrug resistant Klebsiella pneumoniae ATCC 700603 after 20 hrs by microdilution assay; format: functional; details: Klebsiella pneumoniae, 700603, 20 h
[16] = tested on: Staphylococcus aureus; assay: Antimicrobial activity against clinical isolates of methicillin-resistant Staphylococcus aureus after 20 hrs by microdilution assay; format: functional
[17] = tested on: Enterococcus faecalis; assay: Antimicrobial activity against clinical isolates of high level vancomycin-resistant Enterococcus faecalis after 20 hrs by microdilution assay; format: functional
[18] = Cytotoxicity against HEK293 cells after 24 hrs by MTT assay; format: cell-based; details: human
[19] = tested on: Staphylococcus aureus; assay: Antimicrobial activity against vancomycin-resistant Staphylococcus aureus NARSA VRS1 after 20 hrs by microdilution assay; format: functional; details: NARSA VRS1, 20 h
[20] = tested on: Klebsiella pneumoniae; assay: Antimicrobial activity against Klebsiella pneumoniae ATCC 13883 after 20 hrs by microdilution assay; format: functional; details: ATCC 13883, 20 h
[21] = tested on: Staphylococcus aureus; assay: Antimicrobial activity against methicillin-susceptible Staphylococcus aureus ATCC 25923 assessed as blister appearance on cell surface at 16 times MIC after 3 hrs by transmission electron microscopic analysis; format: functional, organism-based
[22] = tested on: Staphylococcus aureus; assay: Antimicrobial activity against methicillin-susceptible Staphylococcus aureus ATCC 25923 assessed as surface blebs at 16 times MIC after 3 hrs by transmission electron microscopic analysis; format: functional, organism-based

SMILES	MIC [1]	MIC [2]	MIC [3]	MIC [4]	MIC [5]	MIC [6]	MIC [7]	CC50 at 24 h [8]	MIC [9]	MIC [10]	MIC [11]	MIC [12]	MIC [13]	MIC [14]	MIC [15]	MIC [16]	MIC [17]	CC50 at 24 h [18]	MIC [19]	MIC [20]	further results
CCCCCCCCCCC(NC(=O)C(CCCCNC(=O)C(CCCCN)NC(C)=O)NC(=O)C(CCCCN)NC(C)=O)C(N)=O (centres undefined)	> 30 µM	> 30 µM	> 30 µM	> 30 µM	> 30 µM	> 30 µM	> 30 µM	> 15 µM	> 30 µM	> 30 µM	> 30 µM	> 30 µM	> 30 µM	> 30 µM	> 30 µM	> 30 µM	30 µM (≈ 20.5 µg/mL)	> 15 µM	> 30 µM	> 30 µM	–
CCCCCCCCCCC(NC(=O)C(CCCCN)NC(C)=O)C(N)=O (centres undefined)	> 30 µM	> 30 µM	> 30 µM	> 30 µM	> 30 µM	> 30 µM	> 30 µM	> 15 µM	> 30 µM	> 30 µM	> 30 µM	> 30 µM	> 30 µM	> 30 µM	> 30 µM	> 30 µM	30 µM (≈ 11.5 µg/mL)	> 15 µM	> 30 µM	> 30 µM	–
CN[C@@H](CC(C)C)C(=O)N[C@H]1C(=O)N[C@@H](CC(N)=O)C(=O)N[C@H]2C(=O)N[C@H]3C(=O)N[C@H](C(=O)N[C@@H](C(=O)O)c4cc(O)cc(O)c4-c4cc3ccc4O)[C@H](O)c3ccc(c(Cl)c3)Oc3cc2cc(c3O[C@H]2O[C@@H](CO)[C@H](O)[C@@H](O)[C@@H]2O[C@@H]2C[C@@](C)(N)[C@@H](O)[C@@H](C)O2)Oc2ccc(cc2Cl)[C@H]1O	–	–	0.7 µM (≈ 1.01 µg/mL)	–	1 µM (≈ 1.45 µg/mL)	–	0.6 µM (≈ 0.87 µg/mL)	–	> 44 µM	2.8 µM (≈ 4.06 µg/mL)	> 44 µM	0.7 µM (≈ 1.01 µg/mL)	1 µM (≈ 1.45 µg/mL)	> 44 µM	–	5.5 µM (≈ 7.97 µg/mL)	> 44 µM	–	> 44 µM	–	Activity [21]: Active; Activity [22]: Active
CCCCCCCCCCC(NC(=O)C(CCCCCCCCCC)NC(=O)C(CCCCNC(=O)C(CCCCN)NC(C)=O)NC(=O)C(CCCCN)NC(C)=O)C(N)=O (centres undefined) (Ac-KK([Lys-Ac])[ξGly(decyl)][ξGly(decyl)]-NH2; configuration not given here)	> 30 µM	> 30 µM	3.75 µM (≈ 3.3 µg/mL)	30 µM (≈ 26.4 µg/mL)	7.5 µM (≈ 6.6 µg/mL)	30 µM (≈ 26.4 µg/mL)	0.9 µM (≈ 0.792 µg/mL)	> 15 µM	2.8 µM (≈ 2.46 µg/mL)	7.5 µM (≈ 6.6 µg/mL)	1.9 µM (≈ 1.67 µg/mL)	2.8 µM (≈ 2.46 µg/mL)	2.8 µM (≈ 2.46 µg/mL)	0.9 µM (≈ 0.792 µg/mL)	> 30 µM	5.6 µM (≈ 4.93 µg/mL)	0.9 µM (≈ 0.792 µg/mL)	> 15 µM	1.9 µM (≈ 1.67 µg/mL)	> 30 µM	–
